Read-outs that look alike come from different tables or passages of the source.
Tests used:
Pfeiffer cells = experiment: Experiment on Pfeiffer cell proliferation (CellTiter-Glo); type: cell-based, human; conditions: Homo sapiens
Experimental: 90 uL of cells were added to each well of a 96-well plate at 12000 cells/well, and cell-free culture medium was added to blank control wells. The plate was incubated overnight in an incubator at 37° C., 5% CO2 and 100% relative humidity. The compounds were diluted from highest to lowest concentration gradient with DMSO to make stock solutions at 400-fold and 10-fold concentration. 10 μL of 10× compound working solution was added to the cell culture plate, and the total concentration of the compound was detected from 10 μM, 9 concentration points in total, and 3-fold serial dilution was performed. 10 μL of DMSO-cell culture medium mixture solution was added to the vehicle control wells and blank control wells. The final concentration of DMSO was 0.25%. The plate was put back in the incubator for another 7 days of culturing.
The cell culture plate cultured for 7 days was taken out of the incubator, and the suspended cells in the 96-well plate were mixed well by pipetting multiple times. 74 uL of fresh cell culture medium was added to a new 96-well plate, and 16 uL of cell suspension was pipetted from the 96-well plate with cells mixed well by pipetting into the new 96-well plate to bring the total volume to 90 uL. Cells in the new 96-well plate were treated with the compound. The new 96-well plate was put back in the incubator for another 7 days of culturing, and then cell viability was detected directly.
84 μL of cell suspension was taken from the cell culture plate for cell viability detection.
CellTiter-Glo buffer and substrate were thawed and balanced to room temperature. The CellTiter-Glo buffer was added to a bottle of CellTiter-Glo substrate to dissolve the substrate, thereby preparing CellTiter-Glo working solution. The bottle was subjected to slow vortex shaking to completely dissolve the substrate. The cell culture plate was taken out and balanced to room temperature for 30 min. 50 μL of CellTiter-Glo working solution was added to each well. The cell plate was wrapped with aluminum foil to keep out of light. The plate was shaken on an orbital shaker for 2 min to induce cell lysis. The plate was placed at room temperature for 10 min to stabilize the luminescence signals. The luminescence signals were detected on 2104 En Vision plate reader.
Inhibition rates of compounds at different concentrations were calculated in Excel, followed by plotting the inhibition curves and calculating relevant parameters including minimum (%), maximum (%), and absolute IC50 using GraphPad Prism software.

[1] = In vivo pharmacokinetic properties in mice; set-up: species or system mouse; conditions: male ICR mice; for F: intragastric 250 mg/kg vs intravenous 5 mg/kg; for CL / AUC(0-inf) / Cmax / Tmax / half-life: single intravenous 5 mg/kg and intragastric 250 mg/kg study; for AUC(0-inf) / Cmax / Tmax / half-life: mouse, plasma; for AUC(0-inf) / Cmax / Tmax: oral; for Cmax: read-out: Cmax; for Tmax: read-out: Tmax
Procedure, shortened: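 Male ICR mice, n=3 per group, dosed once at 5 mg/kg IV in 10% DMSO/90% (20% Captisol) or 250 mg/kg intragastrically in 0.5% CMC-Na/0.1% Tween 80 (pH 3-4). EDTA-K2 plasma sampled from 5 min to 24 h; compound levels measured by LC-MS/MS.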

EZH2 (Y641F) = EZH2 (Y641F) (Homo sapiens (Human), UniProt Q15910, Y641F); experiment: Test on EZH2 (Y641F) inhibitory activity; type: biochemical
Experimental: (§1) Compounds at different concentrations were dissolved in 100% DMSO and transferred to test plates, and the final concentration of DMSO was 1%. Enzyme solution and substrate SAM solution were prepared with 1-fold reaction buffer (optimized Tris buffer). 5 uL of enzyme solution was added to the test plate and wells only added with 5 uL of reaction buffer were used as negative control wells. After incubation at room temperature for 15 min, the plate was added with 5 uL of substrate solution per well to initiate the reaction, and then incubated at room temperature for 60 min. 5 uL of receptor solution was added and the plate was incubated away from light at room temperature for 60 min. 10 uL of donor solution was added and the plate was incubated away from light at room temperature for 30 min. The endpoint values were read on the Envision and the IC50 was calculated.
(§2) Data were fitted by GraphPad Prism 5 software and inhibition rate was calculated according to equation (1) Inh %=(Max−Signal)/(Max−Min)×100 (1)
(§3) IC50 was calculated using equation (2) Y=Bottom+(Top−Bottom)/(1+10^((Log IC50−X)×Hill Slope))
(§4) Y: inhibition rate; X: concentration of the compound

EZH2 (wt) = EZH2 (wt) (Homo sapiens (Human), UniProt Q15910); experiment: Test on EZH2 (wt) inhibitory activity ([3H]-SAM Flashplate); type: biochemical
Experimental: Protocols Compounds at different concentrations were dissolved in 100% DMSO and transferred to test plates, and the final concentration of DMSO was 1%. The enzyme solution and the mixture solution of peptide and [3H]-SAM were prepared with 1-fold reaction buffer. 10 uL of enzyme solution was added to the test plate and wells only added with 10 uL of reaction buffer were used as negative control wells. After incubation at room temperature for 15 min, the plate was added with 10 uL of the mixture solution of peptide and [3H]-SAM per well to initiate the reaction which lasts for 60 min at room temperature. The pre-cooled SAM was added to 1-fold reaction buffer to prepare a stop buffer. The reaction was stopped by adding 10 uL of stop buffer per well. 25 uL of solution was transferred from the reaction plate to Flashplate and incubated at room temperature for at least 1 h. The Flashplate was washed 3 times with dH2O+0.1% Tween-20. The plate was read by Microbeta.
as §2, §3, §4

WSU-DLCL2 cells = experiment: Experiment on WSU-DLCL2 cell proliferation (Calcein-AM); type: cell-based; conditions: Homo sapiens
Experimental: WSU-DLCL2 cells were plated in a 96-well plate and 100 uL of cells (a density of 1×10^5 cells/mL) and 50 uL of compound stock at 3-fold concentration was added to each well, and the final volume was 150 uL/well. After 6 days of culturing, on day 7, the cells in the well plate were mixed well by pipetting, and 50 uL of the cell suspension was pipetted to be tested for cell viability using Calcein-AM. 50 uL of the cell suspension was added to a 96-well plate coated by poly-D-Lysine, and then 50 uL of HBSS containing 2 uM Calcein-AM was added to make the final concentration of Calcein-AM 1 uM. After incubation for 10 min at room temperature, the cells were rapidly centrifuged to be deposited on the bottom of the plate. The cells were cultured in the incubator for another 40 min and then the plate was read on Acumen.
The remaining cells were diluted and then plated in a 96-well plate, and 100 uL of cells and 50 uL of a compound at 3-fold concentration were added to each well for further culturing until day 14, and the cell viability was detected as described above. The IC50 was calculated.

EZH2 (Y641N) = EZH2 (Y641N) (Homo sapiens (Human), UniProt Q15910, Y641N); experiment: Test on EZH2 (Y641N) inhibitory activity; type: biochemical
Experimental: as §1, §2, §3, §4

[2] = tested on: subcutaneous xenograft tumor model of human B lymphocyte Pfeiffer; experiment: In vivo efficacy in subcutaneous xenograft tumor model of human B lymphocyte Pfeiffer; set-up: species or system mouse; conditions: SCID Beige mice, 100 mg/kg p.o. QD 21 days, tumor volume 21 days after administration
Experimental: Human B lymphocyte strain Pfeiffer was cultured in vitro, in a monolayer way, in a RPMI-1640 medium containing 10% fetal bovine serum, 100 U/mL penicillin and 100 μg/mL streptomycin in an incubator at 37° C./5% CO2. Conventional medium refreshment and subculturing were carried out twice a week, and cells in logarithmic growth phase were collected and used for tumor inoculation after being counted.
Female SCID Beige mice, aged 6-8 weeks and weighed 18-22 g were used in the experiment. The experiment started after 7-day adaptive feed.
Each mouse was inoculated subcutaneously with 10×10^6 Pfeiffer cells in a volume of 0.2 mL in the right side of the neck. The cells were suspended with PBS and matrigel (volume ratio 1:1). After the average tumor volume reached 130 mm^3, the mice were divided into groups with 8 mice per group for administration. The administration volume was 10 uL/g and the dose was 100 mg/kg if there's no special labeling ((p.o. administration, QD, continuous administration for 21 days).
Animal body weights were measured twice weekly and animal mortality and side effects within each group were recorded based on the number of animals in the group.
The experimental indices were to investigate whether tumor growth was inhibited or delayed or the tumor was cured. Tumor diameters were measured twice weekly using a vernier caliper. The tumor volume was calculated according to the following formula: V=0.5 a×b^2, where a and b represent the long diameter and short diameter of the tumor, respectively. The tumor growth inhibitions (TGIs) of the compounds were evaluated by T/C (%). The percentage value of T/C (%) is an index for reflecting the tumor growth inhibition, where T and C represent the average tumor volume of the administration group and the control group, respectively, at a certain day.
The tumor growth inhibition rate was calculated according to the following formula: TGI (%)=(1−(Ti−T0)/(Vi−V0))×100, where Ti is the average tumor volume of a certain administration group on a certain day, T0 is the average tumor volume of the administration group at the start of administration, Vi is the average tumor volume of the vehicle control group on a certain day (same day as Ti) and V0 is the average tumor volume of the vehicle control group at the start of administration.
Relative tumor volumes at each time point for each group were statistically analyzed and differences among groups were assessed based on the data. The statistical method used for testing was one-way ANOVA.

Chain of EZH2 (wt) (Q15910 whole entry): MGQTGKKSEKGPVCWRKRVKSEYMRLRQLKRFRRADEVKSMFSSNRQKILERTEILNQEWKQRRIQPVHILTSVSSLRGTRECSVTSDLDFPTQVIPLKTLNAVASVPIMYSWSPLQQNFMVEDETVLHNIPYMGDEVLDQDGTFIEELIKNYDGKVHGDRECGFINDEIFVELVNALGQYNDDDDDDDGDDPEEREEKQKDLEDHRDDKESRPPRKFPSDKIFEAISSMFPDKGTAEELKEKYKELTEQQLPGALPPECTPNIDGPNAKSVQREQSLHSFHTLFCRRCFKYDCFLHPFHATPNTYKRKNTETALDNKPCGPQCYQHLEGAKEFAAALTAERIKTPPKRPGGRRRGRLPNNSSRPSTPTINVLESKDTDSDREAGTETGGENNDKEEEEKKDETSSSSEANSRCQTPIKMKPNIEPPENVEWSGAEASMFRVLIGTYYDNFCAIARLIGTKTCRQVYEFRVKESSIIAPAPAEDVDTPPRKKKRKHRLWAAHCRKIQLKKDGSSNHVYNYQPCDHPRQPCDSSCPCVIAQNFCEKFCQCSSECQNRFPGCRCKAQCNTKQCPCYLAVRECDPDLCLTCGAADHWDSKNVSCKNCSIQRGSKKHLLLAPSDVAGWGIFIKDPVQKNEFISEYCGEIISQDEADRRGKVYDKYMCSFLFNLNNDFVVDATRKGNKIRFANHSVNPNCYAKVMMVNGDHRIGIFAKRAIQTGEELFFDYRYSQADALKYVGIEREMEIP
Chain of EZH2 (wt) (O75530 whole entry partner): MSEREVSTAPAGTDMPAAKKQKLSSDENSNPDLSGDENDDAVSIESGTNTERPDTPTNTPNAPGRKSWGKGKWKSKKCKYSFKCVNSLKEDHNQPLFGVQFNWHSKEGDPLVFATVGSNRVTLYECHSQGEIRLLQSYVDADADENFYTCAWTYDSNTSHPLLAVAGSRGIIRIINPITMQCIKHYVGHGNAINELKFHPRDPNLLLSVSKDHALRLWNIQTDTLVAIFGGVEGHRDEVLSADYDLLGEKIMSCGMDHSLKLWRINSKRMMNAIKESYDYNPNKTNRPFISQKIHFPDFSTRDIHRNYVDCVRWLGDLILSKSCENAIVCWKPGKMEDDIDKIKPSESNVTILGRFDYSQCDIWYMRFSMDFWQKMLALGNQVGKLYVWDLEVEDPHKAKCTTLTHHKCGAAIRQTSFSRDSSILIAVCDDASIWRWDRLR
Chain of EZH2 (wt) (Q15022 whole entry partner): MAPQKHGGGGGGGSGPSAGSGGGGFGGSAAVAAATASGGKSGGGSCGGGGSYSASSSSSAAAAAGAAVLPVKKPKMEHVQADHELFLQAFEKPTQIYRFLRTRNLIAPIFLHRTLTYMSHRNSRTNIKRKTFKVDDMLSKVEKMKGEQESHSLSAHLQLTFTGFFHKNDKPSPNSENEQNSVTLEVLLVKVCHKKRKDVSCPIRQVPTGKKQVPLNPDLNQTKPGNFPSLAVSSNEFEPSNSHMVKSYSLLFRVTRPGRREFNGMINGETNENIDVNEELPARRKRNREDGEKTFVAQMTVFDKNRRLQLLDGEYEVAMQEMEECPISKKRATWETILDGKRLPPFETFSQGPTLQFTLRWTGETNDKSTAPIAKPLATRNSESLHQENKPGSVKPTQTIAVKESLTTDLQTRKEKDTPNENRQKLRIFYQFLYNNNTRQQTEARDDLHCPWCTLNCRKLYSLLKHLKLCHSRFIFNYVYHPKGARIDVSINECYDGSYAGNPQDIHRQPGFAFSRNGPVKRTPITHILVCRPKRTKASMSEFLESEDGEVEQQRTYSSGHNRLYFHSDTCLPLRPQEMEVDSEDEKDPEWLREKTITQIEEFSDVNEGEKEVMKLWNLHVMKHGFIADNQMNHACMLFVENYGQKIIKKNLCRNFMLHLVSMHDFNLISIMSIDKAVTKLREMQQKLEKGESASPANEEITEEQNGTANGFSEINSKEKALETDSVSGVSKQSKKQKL
Chain of EZH2 (Y641N) (Q15910 whole entry Y641N): as the sequence (Q15910 whole entry) above, with Y641N counted along it
Chain of EZH2 (Y641N) (O75530 whole entry partner): as the sequence (O75530 whole entry partner) above
Chain of EZH2 (Y641N) (Q15022 whole entry partner): as the sequence (Q15022 whole entry partner) above
Chain of EZH2 (Y641F) (Q15910 whole entry Y641F): as the sequence (Q15910 whole entry) above, with Y641F counted along it
Chain of EZH2 (Y641F) (O75530 whole entry partner): as the sequence (O75530 whole entry partner) above
Chain of EZH2 (Y641F) (Q15022 whole entry partner): as the sequence (Q15022 whole entry partner) above

SMILES | IC50 (Pfeiffer cells; 168 h, Day 7, read-out: IC50 Pfeiffer proliferation Day 7) [nM] | IC50 (Pfeiffer cells; 336 h, Day 14, read-out: IC50 Pfeiffer proliferation Day 14) [nM] | F [1] [%] | CL [1] [mL/min/lg] | AUC(0-inf) [1] [ng·h/mL] | Cmax [1] [ng/mL] | Tmax [1] [h] | half-life [1] [h] | IC50 (EZH2 (Y641F)) [nM] | IC50 (EZH2 (wt)) [nM] | IC50 (WSU-DLCL2 cells; WSUDLCL2, 168 h, WSU-DLCL2, Day 7, read-out: IC50 WSU-DLCL2 proliferation Day 7) [nM] | IC50 (WSU-DLCL2 cells; WSUDLCL2, 336 h, WSU-DLCL2, Day 14, read-out: IC50 WSU-DLCL2 proliferation Day 14) [nM] | IC50 (EZH2 (Y641N)) [nM] | TGI [2] [%]
CCN(c1cc(O[C@H]2C[C@H](N3C[C@@H](C)O[C@@H](C)C3)C2)cc(C(=O)NCc2c(OC)cc(C)[nH]c2=O)c1C)C1CCC(F)(F)CC1 [Example 87, 3-((4,4-difluorocyclohexyl)(ethyl)amino)-5-(trans-3-(cis-2,6-dimethylmorpholino)cyclobutoxy)-N-((4-methoxy-6-methyl-2-oxo-1,2-dihydropyridin-3-yl)methyl)-2-methylbenzamide] | 20 | 4.3 | 35.4 | 31.0 ± 2.82 | 47800 | 10600 ± 4150 | 0.83 ± 0.29 | 5.77 ± 1.51 | 5.5 | 1.2 | 40 | 9 | 2.6 | 42.84
CCN(c1cc(O[C@H]2C[C@H](N3C[C@@H](C)O[C@@H](C)C3)C2)cc(C(=O)NCc2c(OC)cc(C)[nH]c2=O)c1C)C1CC2CCC(C1)O2 (stereo partly drawn) [Example 88, 3-((8-oxabicyclo[3.2.1]octan-3-yl)(ethyl)amino)-5-(trans-3-(cis-2,6-dimethylmorpholinyl)cyclobutoxy)-N-((4-methoxy-6-methyl-2-oxo-1,2-dihydropyridin-3-yl)methyl)-2-methylbenzamide] |  |  | 33.4 | 60.4 ± 0.15 | 23000 ± 4540 | 10200 ± 1450 | 0.5 | 2.26 ± 0.87 | 3.3 | 1.1 |  |  | 2 | 32.83
CCN(c1cc(O[C@H]2C[C@H](N3CCCCC3)C2)cc(C(=O)NCc2c(OC)cc(C)[nH]c2=O)c1C)C1CCOCC1 [Example 93, 3-(ethyl(tetrahydro-2H-pyran-4-yl)amino)-N-((4-methoxy-6-methyl-2-oxo-1,2-dihydropyridin-3-yl)methyl)-2-methyl-5-(trans-3-(piperidin-1-yl)cyclobutoxy)benzamide] |  |  | 23.1 | 45.17 ± 4.21 | 21500 ± 2110 | 10700 ± 4120 | 0.33 ± 0.14 | 1.3 ± 0.64 | < 0.51 | < 0.51 |  |  | < 0.51 | 

Source: US12390472B2 (SUZHOU SINOVENT PHARMACEUTICALS CO., LTD., priority 2018, dated 2025)
